Measured values as given in article PMC11845761, “Intestinal human carboxylesterase 2 (CES2) expression rescues drug metabolism and most metabolic syndrome phenotypes in global Ces2 cluster knockout mice” (Acta Pharmacologica Sinica, 2024).
Read-outs that look alike come from different tables or passages of the source. Blank lines part the entries; values can stand above or below the molecule they belong to.

Assays:
[1] = Tissue concentrations of capecitabine and its metabolites 2 h after oral capecitabine in CES2-modified mice; assay type: in vivo, mouse; details: oral capecitabine 500 mg/kg; for concentration at 2 h: female, mouse, oral, 500 mg/kg
Method: (§1) For capecitabine 2-h experiments, 6–7 female mice received oral capecitabine (500 mg/kg, 10 μL/g), and tail vein blood samples were collected at 0.125, 0.25, 0.5 and 1 h after drug administration. For the vinorelbine 4-h experiment, 6-7 male mice received vinorelbine intravenously (10 mg/kg, 5 μL/g) or orally (10 mg/kg, 10 μL/g) using a blunt-ended needle. Tail vein blood samples were collected at 0.125, 0.25, 0.5, 1 and 2 h after drug administration. […] At the last time point in each experiment (2 or 4 h), mice were anesthetized with 5% isoflurane and blood was collected by cardiac puncture. […] Plasma was isolated from the blood by centrifugation at 9000 × g for 6 min at 4 °C, and the plasma fraction was collected and stored at −30 °C until analysis.
(§2) Concentrations of capecitabine (and its metabolites) and vinorelbine (and its metabolite) in mouse plasma samples and organ homogenates were determined using two independent validated high-performance liquid chromatography-tandem mass spectrometry assays.
(§3) Pharmacokinetic parameters were calculated by non-compartmental methods using the PK solver software. […] Differences were considered statistically significant when P < 0.05. All data are presented as mean ± SD.

[2] = Plasma pharmacokinetics of capecitabine and its metabolites after oral capecitabine in CES2-modified mice; assay type: in vivo, mouse; details: oral capecitabine 500 mg/kg; for AUC0-2h / AUC0-2h ratio (metabolite/capecitabine) / Cmax / Tmax / AUC(0-t): plasma; for AUC(0-t): read-out: AUC0-2h
Method: as §1, §2, §3

SMILES: NCC(F)C(=O)O (stereo not shown) [FBAL]
CSI (small intestine tissue concentration) ([1]; female Ces2^–/– mice): 1239 ± 335 ng/g
Ccolon (colon concentration) ([1]; female Ces2^–/– mice): 1355 ± 281 ng/g
Cliver (liver concentration) ([1]; female Ces2^–/– mice): 59839 ± 11722 ng/g
Colon concentration ratio (metabolite/capecitabine) ([1]; female Ces2^–/– mice): 0.12 ± 0.05
Liver concentration ratio (metabolite/capecitabine) ([1]; female Ces2^–/– mice): 4.2 ± 2.7
Small intestine concentration ratio (metabolite/capecitabine) ([1]; female Ces2^–/– mice): 0.08 ± 0.05
CSI (small intestine tissue concentration) ([1]; female Ces2^–/–A mice): 2193 ± 960 ng/g
Ccolon (colon concentration) ([1]; female Ces2^–/–A mice): 2105 ± 600 ng/g
Cliver (liver concentration) ([1]; female Ces2^–/–A mice): 102959 ± 17203 ng/g
Colon concentration ratio (metabolite/capecitabine) ([1]; female Ces2^–/–A mice): 0.24 ± 0.02
Liver concentration ratio (metabolite/capecitabine) ([1]; female Ces2^–/–A mice): 25 ± 11
Small intestine concentration ratio (metabolite/capecitabine) ([1]; female Ces2^–/–A mice): 0.15 ± 0.04
CSI (small intestine tissue concentration) ([1]; female Ces2^–/–V mice): 1830 ± 655 ng/g
Ccolon (colon concentration) ([1]; female Ces2^–/–V mice): 2080 ± 446 ng/g
Cliver (liver concentration) ([1]; female Ces2^–/–V mice): 77125 ± 16534 ng/g
Colon concentration ratio (metabolite/capecitabine) ([1]; female Ces2^–/–V mice): 0.60 ± 0.36^###^
Liver concentration ratio (metabolite/capecitabine) ([1]; female Ces2^–/–V mice): 18 ± 16
Small intestine concentration ratio (metabolite/capecitabine) ([1]; female Ces2^–/–V mice): 1.5 ± 2.0^###^^^
CSI (small intestine tissue concentration) ([1]; female wild-type mice): 1174 ± 174 ng/g
Ccolon (colon concentration) ([1]; female wild-type mice): 1322 ± 249 ng/g
Cliver (liver concentration) ([1]; female wild-type mice): 55840 ± 13861 ng/g
Colon concentration ratio (metabolite/capecitabine) ([1]; female wild-type mice): 0.62 ± 0.16
Liver concentration ratio (metabolite/capecitabine) ([1]; female wild-type mice): 48 ± 19
Small intestine concentration ratio (metabolite/capecitabine) ([1]; female wild-type mice): 0.86 ± 0.38
AUC0-2h ([2]; female Ces2^–/– mice): 1833 ± 504 ng·h/mL
AUC0-2h ratio (metabolite/capecitabine) ([2]; female Ces2^–/– mice): 0.07 ± 0.04
Cmax ([2]; female Ces2^–/– mice): 1684 ± 597 ng/mL
Tmax ([2]; female Ces2^–/– mice): 120 ± 0 min
AUC0-2h ([2]; female Ces2^–/–A mice): 2910 ± 671 ng·h/mL
AUC0-2h ratio (metabolite/capecitabine) ([2]; female Ces2^–/–A mice): 0.12 ± 0.06
Cmax ([2]; female Ces2^–/–A mice): 2923 ± 760 ng/mL
Tmax ([2]; female Ces2^–/–A mice): 108 ± 24 min
AUC0-2h ([2]; female Ces2^–/–V mice): 2874 ± 659 ng·h/mL
AUC0-2h ratio (metabolite/capecitabine) ([2]; female Ces2^–/–V mice): 0.20 ± 0.09
Cmax ([2]; female Ces2^–/–V mice): 2606 ± 698 ng/mL
Tmax ([2]; female Ces2^–/–V mice): 120 ± 0 min
AUC0-2h ([2]; female wild-type mice): 1966 ± 158 ng·h/mL
AUC0-2h ratio (metabolite/capecitabine) ([2]; female wild-type mice): 0.35 ± 0.08
Cmax ([2]; female wild-type mice): 1755 ± 308 ng/mL
Tmax ([2]; female wild-type mice): 120 ± 0 min

liver concentration, fold greater in Ces2^–/– than in wild-type mice ([1]; female mice): 13.8 fold
liver concentration, reduction in Ces2^–/–A compared with Ces2^–/– mice ([1]; female mice): 74.2%
liver concentration, reduction in Ces2^–/–V compared with Ces2^–/– mice ([1]; female mice): 63.5%
small intestine concentration, fold higher in Ces2^-/- than in wild-type mice ([1]; female mice): 10.6 fold
concentration at 2 h ([1]; Ces2^-/-, liver, female Ces2^–/– mice, read-out: Cliver (liver concentration)): 18000 ± 8740 ng/g
concentration at 2 h ([1]; Ces2^-/-, small intestine, female Ces2^–/– mice, read-out: CSI (small intestine tissue concentration)): 17200 ± 6550 ng/g
concentration at 2 h ([1]; Ces2^-/-A, liver, female Ces2^–/–A mice, read-out: Cliver (liver concentration)): 4650 ± 1760 ng/g
concentration at 2 h ([1]; Ces2^-/-A, small intestine tissue, female Ces2^–/–A mice, read-out: CSI (small intestine tissue concentration)): 15200 ± 6020 ng/g
concentration at 2 h ([1]; Ces2^-/-V, liver, female Ces2^–/–V mice, read-out: Cliver (liver concentration)): 6570 ± 3220 ng/g
concentration at 2 h ([1]; Ces2^-/-V, small intestine, female Ces2^–/–V mice, read-out: CSI (small intestine tissue concentration)): 2410 ± 1190 ng/g
concentration at 2 h ([1]; Ces2^–/– (Ces2 cluster knockout), small intestine, female Ces2^–/– mice, read-out: CSI (small intestine tissue concentration)): 17200 ng/g
concentration at 2 h ([1]; colon, female Ces2^–/– mice, read-out: Ccolon (colon concentration)): 14300 ± 9020 ng/g
concentration at 2 h ([1]; colon, female Ces2^–/–A mice, read-out: Ccolon (colon concentration)): 8780 ± 1630 ng/g
concentration at 2 h ([1]; colon, female Ces2^–/–V mice, read-out: Ccolon (colon concentration)): 4970 ± 2980 ng/g
concentration at 2 h ([1]; colon, female wild-type mice, read-out: Ccolon (colon concentration)): 2250 ± 712 ng/g
concentration at 2 h ([1]; liver, female wild-type mice, read-out: Cliver (liver concentration)): 1300 ± 522 ng/g
concentration at 2 h ([1]; small intestine contents, female Ces2^–/– mice, read-out: CSIC (small intestine contents concentration)): 97200 ± 37200 ng/g
concentration at 2 h ([1]; small intestine contents, female Ces2^–/–A mice, read-out: CSIC (small intestine contents concentration)): 88500 ± 25100 ng/g
concentration at 2 h ([1]; small intestine contents, female Ces2^–/–V mice, read-out: CSIC (small intestine contents concentration)): 49700 ± 45900 ng/g
concentration at 2 h ([1]; small intestine contents, female wild-type mice, read-out: CSIC (small intestine contents concentration)): 26500 ± 16300 ng/g
concentration at 2 h ([1]; small intestine tissue, female wild-type mice, read-out: CSI (small intestine tissue concentration)): 1630 ± 865 ng/g
concentration at 2 h ([1]; small intestine, female Ces2^–/–V mice, read-out: CSI (small intestine tissue concentration)): 2410 ± 1190 ng/g
plasma AUC0-2h, fold greater in Ces2^–/– than in wild-type mice ([2]; female mice): 5.3 fold
plasma AUC0-2h, lower in Ces2^–/–V than in Ces2^–/– mice ([2]; female mice): 44%
AUC(0-t) ([2]; female, Ces2^–/– (Ces2 cluster knockout), mouse, po, 500 mg/kg, female Ces2^–/– mice): 31300 ± 16600 ng·h/mL
Cmax ([2]; female, Ces2^–/– (Ces2 cluster knockout), mouse, po, 500 mg/kg, female Ces2^–/– mice, read-out: Cmax): 42600 ± 17800 ng/mL
Tmax ([2]; female, Ces2^–/– (Ces2 cluster knockout), mouse, po, 500 mg/kg, female Ces2^–/– mice, read-out: Tmax): 12.6 ± 3.6 min
AUC(0-t) ([2]; female, mouse, po, 500 mg/kg, female Ces2^–/–A mice): 31500 ± 19200 ng·h/mL
Cmax ([2]; female, mouse, po, 500 mg/kg, female Ces2^–/–A mice, read-out: Cmax): 47000 ± 34100 ng/mL
Tmax ([2]; female, mouse, po, 500 mg/kg, female Ces2^–/–A mice, read-out: Tmax): 10.2 ± 4.2 min
AUC(0-t) ([2]; female, mouse, po, 500 mg/kg, female Ces2^–/–V mice): 17500 ± 9710 ng·h/mL
Cmax ([2]; female, mouse, po, 500 mg/kg, female Ces2^–/–V mice, read-out: Cmax): 23400 ± 14100 ng/mL
Tmax ([2]; female, mouse, po, 500 mg/kg, female Ces2^–/–V mice, read-out: Tmax): 9.6 ± 3.6 min
AUC(0-t) ([2]; female, mouse, po, 500 mg/kg, female wild-type mice): 5850 ± 1380 ng·h/mL
Cmax ([2]; female, mouse, po, 500 mg/kg, female wild-type mice, read-out: Cmax): 12200 ± 3800 ng/mL
Tmax ([2]; female, mouse, po, 500 mg/kg, female wild-type mice, read-out: Tmax): 11.4 ± 4.2 min
SMILES: CCCCCOC(=O)Nc1nc(=O)n([C@@H]2O[C@H](C)[C@@H](O)[C@H]2O)cc1F [Capecitabine, reference compound]
